Here are results for 17 molecules from US9296759B2, “Amino-oxazine and amino-dihydrothiazine compounds as beta-secretase modulators and methods of use” (AMGEN INC., priority 2011, dated 2016).

The subject of experiment [1] is Aβ40 in conditioned medium of cells stably expressing Amyloid Precursor Protein (APP). Description: In vitro BACE cell-based assay (HEK cell assay, Aβ40 sandwich ELISA). The note with it: Homo sapiens, HEK293; average IC50, Aβ40, 24 h incubation. The method, then:
In Vitro BACE Cell-Based Assay
The cell-based assay measures inhibition or reduction of Aβ40 in conditioned medium of test compound treated cells expressing amyloid precursor protein.
Cells stably expressing Amyloid Precursor Protein (APP) were plated at a density of 40K cells/well in 96 well plates (Costar). The cells were cultivated for 24 hours at 37° C. and 5% CO2 in DMEM supplemented with 10% FBS. The test compounds were then added to cells in 10-point dose response concentrations with the starting concentration being either 100 μM or 10 μM. The compounds were diluted from stock solutions in DMSO and the final DMSO concentration of the test compounds on cells was 0.1%. After 24 h of incubation with the test compounds the supernatant conditioned media was collected and the Aβ 40 levels were determined using a sandwich ELISA. The IC50 of the compound was calculated from the percent of control or percent inhibition of Aβ 40 as a function of the concentration of the test compound.
The sandwich ELISA to detect Aβ 40 was performed in 96 well microtiter plates, which were pre-treated with goat anti-rabbit IgG (Pierce). The capture and detecting antibody pair that were used to detect Aβ 40 from cell supernatants were affinity purified pAb40 (Biosource) and biotinylated 6E10 (Signet Labs Inc.), respectively. The optimal concentration for the pAb40 antibody was 3 μg/ml in Superblock/TBS (Pierce) that was supplemented with 0.05% Tween 20 (Sigma).
Cellular supernatants were incubated with the capture antibody for 3 h at 4° C., followed by 3 wash steps in TBS-tween (0.05%). The detecting antibody incubation was for 2 h at 4° C., again followed by the wash steps as described previously. The final readout of the ELISA is Time-Resolved Fluorescence (counts per minute) using Delfia reagents Streptavidin-Europium and Enhancement solutions (Perkin Elmer) and the Victor 2 multilabel counter (Perkin Elmer).

The target in a further experiment is Cathepsin D (Homo sapiens (Human), UniProt P07339). Description: In vitro enzymatic Cat D (Cathepsin D) FRET assay. It counts as biochemical. Particulars: average IC50. On the procedure: In Vitro Enzymatic Cat D (Cathepsin D) FRET (Fluorescence Resonance Energy Transfer) Assay
Recombinant CathepsinD was expressed in CHO cells. The assay buffer for CathepsinD is 0.05 M citrate pH 3.5, 10% DMSO final, 5 mM CHAPS. […] The assays are effectively started by the addition of different FRET substrates (20 nM for CathepsinD) and the combination is incubated for one hour. The FRET assay is terminated with by addition of Tris buffer, which raises the pH to neutrality, and the fluorescence is determined. The FRET substrate is a peptide with commercially available fluorophore and quencher, on opposite sides of the BACE cleavage site. […] Proteolytic cleavage of the FRET substrate releases quenching of fluorescence (CathepsinD excitation 500 nm and emission 580 nm).

Experiment [2] has as its target BACE 1 (beta secretase enzyme) (Homo sapiens (Human), UniProt P56817). The experiment is described as follows: In vitro enzymatic BACE FRET assay. Particulars: average IC50. Type of experiment: biochemical. On the procedure:
In Vitro Enzymatic BACE FRET (Fluorescence Resonance Energy Transfer) Assay
The assay buffer used in this screen is 0.05 M acetate, pH 4.2, 10% DMSO final, 100 uM genapol (which is a nonionic detergent, below its Critical Micelle Concentration). […] This assay is effectively started by the addition of FRET substrate (50 nM) and the combination is incubated for one hour. The FRET assay is terminated with by addition of Tris buffer, which raises the pH to neutrality, and the fluorescence is determined. The FRET substrate is a peptide with commercially available fluorophore and quencher, on opposite sides of the BACE cleavage site. Proteolytic cleavage of the FRET substrate releases quenching of fluorescence (excitation […] and […]).

BACE 1 (beta secretase enzyme), sequence (P56817 46-501): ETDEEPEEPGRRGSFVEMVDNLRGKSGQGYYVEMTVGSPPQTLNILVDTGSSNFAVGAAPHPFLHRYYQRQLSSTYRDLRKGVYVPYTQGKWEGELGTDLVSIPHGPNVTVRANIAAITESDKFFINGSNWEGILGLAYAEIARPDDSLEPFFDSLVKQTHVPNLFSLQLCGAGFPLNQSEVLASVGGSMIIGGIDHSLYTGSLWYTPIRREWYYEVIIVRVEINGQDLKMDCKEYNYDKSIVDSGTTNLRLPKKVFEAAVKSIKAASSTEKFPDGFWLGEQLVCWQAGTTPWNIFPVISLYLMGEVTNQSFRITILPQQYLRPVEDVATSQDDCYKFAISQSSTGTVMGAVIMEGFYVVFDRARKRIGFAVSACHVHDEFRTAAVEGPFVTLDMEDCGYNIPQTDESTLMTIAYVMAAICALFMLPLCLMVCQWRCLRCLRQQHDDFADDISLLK
Cathepsin D, sequence (P07339 65-412, species assumed): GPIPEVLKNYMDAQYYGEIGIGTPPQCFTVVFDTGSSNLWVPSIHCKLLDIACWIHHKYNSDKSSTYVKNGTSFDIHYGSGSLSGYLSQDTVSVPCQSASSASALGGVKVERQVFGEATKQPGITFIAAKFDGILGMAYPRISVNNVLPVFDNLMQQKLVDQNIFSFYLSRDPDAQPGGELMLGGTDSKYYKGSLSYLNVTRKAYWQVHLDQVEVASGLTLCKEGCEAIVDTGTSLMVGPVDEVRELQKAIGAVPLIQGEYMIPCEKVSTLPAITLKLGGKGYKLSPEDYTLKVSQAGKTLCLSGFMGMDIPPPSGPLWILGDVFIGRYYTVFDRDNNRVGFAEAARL

Regarding `COc1cc(F)c2c(c1)[C@]1(CCOC(N)=N1)c1cc(NC(=O)c3ccc(C#N)cn3)ccc1O2` [Example 74, N-((4S)-2-amino-5′-fluoro-7′-methoxy-5,6-dihydrospiro[1,3-oxazine-4,9′-xanthen]-2′-yl)-5-cyano-2-pyridinecarboxamide], the IC50 in experiment [1] amounted to 4.6 nM; on Cathepsin D, 147000 nM; in experiment [2] it was 10.8 nM.

As for `COc1cc(F)c2c(c1)[C@]1(CCOC(N)=N1)c1cc(NC(=O)c3ccc(Cl)cc3F)ccc1O2` [Example 76, N-((4S)-2-amino-5′-fluoro-7′-methoxy-5,6-dihydrospiro[1,3-oxazine-4,9′-xanthen]-2′-yl)-4-chloro-2-fluorobenzamide], the IC50 in experiment [1] was 206 nM; at Cathepsin D, 400000 nM; in experiment [2], 181 nM.

Turning to `NC1=N[C@@]2(CCO1)c1cc(NC(=O)c3ccc(Cl)cn3)ccc1Oc1cnc(Cl)cc12` [Example 79, N-((5S)-2′-amino-3-chloro-5′,6′-dihydrospiro[chromeno[2,3-c]pyridine-5,4′-[1,3]oxazin]-7-yl)-5-chloro-2-pyridinecarboxamide], the figures for the IC50 (in experiment [1]; at Cathepsin D; in experiment [2]) were 9.9 nM, 400000 nM and 38.6 nM, respectively.

Take `NC1=N[C@@]2(CCO1)c1cc(NC(=O)c3ccc(F)cn3)ccc1Oc1c2cc(C2=CCCOC2)nc1F` [Example 83, N-((5S)-2′-amino-3-(5,6-dihydro-2H-pyran-3-yl)-1-fluoro-5′,6′-dihydrospiro[chromeno[2,3-c]pyridine-5,4′-[1,3]oxazin]-7-yl)-5-fluoro-2-pyridinecarboxamide]: the IC50 in experiment [1] was 0.4 nM; at Cathepsin D, 255000 nM; in experiment [2], 9.3 nM.

Take `COc1cnc(C(=O)Nc2ccc3c(c2)[C@@]2(CCOC(N)=N2)c2cc(C#CC(C)(C)C)ncc2O3)cn1` [Example 86, N-((5S)-2′-amino-3-(3,3-dimethyl-1-butyn-1-yl)-5′,6′-dihydrospiro[chromeno[2,3-c]pyridine-5,4′-[1,3]oxazin]-7-yl)-5-methoxy-2-pyrazinecarboxamide]: the IC50 in experiment [1] was determined as 1.2 nM; on Cathepsin D, 452000 nM; in experiment [2], 12 nM.

For `COc1cnc(C(=O)Nc2ccc3c(c2)[C@@]2(CCOC(N)=N2)c2cc(-c4ccnc(F)c4)ncc2O3)cn1` [Example 93, N-((5S)-2′-amino-3-(2-fluoro-4-pyridinyl)-5′,6′-dihydrospiro[chromeno[2,3-c]pyridine-5,4′-[1,3]oxazin]-7-yl)-5-methoxy-2-pyrazinecarboxamide], the 50% inhibitory concentration (IC50) in experiment [1] was determined as 0.5 nM; at Cathepsin D it was 400000 nM; in experiment [2], 2.9 nM.

For `NC1=N[C@@]2(CCO1)c1cc(NC(=O)c3ccc(Cl)cn3)ccc1Oc1cnc(-c3ccnc(F)c3)cc12` [Example 94, N-((5S)-2′-amino-3-(2-fluoro-4-pyridinyl)-5′,6′-dihydrospiro[chromeno[2,3-c]pyridine-5,4′-[1,3]oxazin]-7-yl)-5-chloro-2-pyridinecarboxamide], the IC50 in experiment [1] was 0.7 nM; at Cathepsin D, 400000 nM; in experiment [2] it was 1.6 nM.

As to `N#Cc1ccc(C(=O)Nc2ccc3c(c2)[C@@]2(CCOC(N)=N2)c2cc(-c4ccnc(F)c4)nc(F)c2O3)nc1` [Example 100, N-((5S)-2′-amino-1-fluoro-3-(2-fluoro-4-pyridinyl)-5′,6′-dihydrospiro[chromeno[2,3-c]pyridine-5,4′-[1,3]oxazin]-7-yl)-5-cyano-2-pyridinecarboxamide], the values for the IC50 (in experiment [1]; at Cathepsin D; in experiment [2]) were 0.4 nM, 518000 nM and 0.6 nM, respectively.

Regarding `COc1cnc(C(=O)Nc2ccc3c(c2)[C@@]2(CCSC(N)=N2)c2cc(C4=CCOCC4)ncc2O3)cn1` [Example 103, N-((5S)-2′-amino-3-(3,6-dihydro-2H-pyran-4-yl)-5′,6′-dihydrospiro[chromeno[2,3-c]pyridine-5,4′-[1,3]thiazin]-7-yl)-5-methoxy-2-pyrazinecarboxamide], the IC50 in experiment [1] was 1.1 nM; at Cathepsin D, 400000 nM; in experiment [2] it was 1.7 nM.

`COc1ccc(C(=O)Nc2ccc3c(c2)[C@@]2(CCSC(N)=N2)c2cc(O)cc(F)c2O3)nc1` [Example 105, N-((4S)-2-amino-5′-fluoro-7′-hydroxy-5,6-dihydrospiro[1,3-thiazine-4,9′-xanthen]-2′-yl)-5-methoxy-2-pyridinecarboxamide]: the 50% inhibitory concentration (IC50) in experiment [1] was found to be 82.3 nM; at Cathepsin D, 225000 nM; in experiment [2], 29.4 nM.

For the molecule `COc1ccc(C(=O)Nc2ccc3c(c2)[C@@]2(CCSC(N)=N2)c2cc(N4CCOCC4)cc(F)c2O3)nc1` [Example 107, N-((4S)-2-amino-5′-fluoro-7′-(4-morpholinyl)-5,6-dihydrospiro[1,3-thiazine-4,9′-xanthen]-2′-yl)-5-methoxy-2-pyridinecarboxamide], the IC50 in experiment [1] worked out at 8.7 nM; on Cathepsin D, 326000 nM; in experiment [2], 7.8 nM.

Consider `COc1cnc(C(=O)Nc2ccc3c(c2)[C@@]2(CCSC(N)=N2)c2cc(O)cc(F)c2O3)cn1` [Example 109, N-((4S)-2-amino-5′-fluoro-7′-hydroxy-5,6-dihydrospiro[1,3-thiazine-4,9′-xanthen]-2′-yl)-5-methoxy-2-pyrazinecarboxamide], for which the IC50 is 64.6 nM in experiment [1], 400000 nM at Cathepsin D and 28.4 nM in experiment [2].

`COc1cnc(C(=O)Nc2ccc3c(c2)[C@@]2(CCSC(N)=N2)c2cc(N4CCOCC4)cc(F)c2O3)cn1` [Example 110, N-((4S)-2-amino-5′-fluoro-7′-(4-morpholinyl)-5,6-dihydrospiro[1,3-thiazine-4,9′-xanthen]-2′-yl)-5-methoxy-2-pyrazinecarboxamide]: the half-inhibitory concentration (IC50) in experiment [1] came to 7.7 nM; on Cathepsin D, 229000 nM; in experiment [2], 15.3 nM.

On to `COc1ccc(C(=O)Nc2ccc3c(c2)[C@@]2(CCSC(N)=N2)c2cc(-c4cncc(F)c4)nc(F)c2O3)nc1` [Example 113, N-((5S)-2′-amino-1-fluoro-3-(5-fluoro-3-pyridinyl)-5′,6′-dihydrospiro[chromeno[2,3-c]pyridine-5,4′-[1,3]thiazin]-7-yl)-5-methoxy-2-pyridinecarboxamide], for which the IC50 in experiment [1] was determined as 1.8 nM; at Cathepsin D, 120000 nM; in experiment [2] it was 1.1 nM.

With `COc1cnc(C(=O)Nc2ccc3c(c2)[C@@]2(CCSC(N)=N2)c2cc(-c4ccnc(F)c4)nc(F)c2O3)cn1` [Example 114, N-((5S)-2′-amino-1-fluoro-3-(2-fluoro-4-pyridinyl)-5′,6′-dihydrospiro[chromeno[2,3-c]pyridine-5,4′-[1,3]thiazin]-7-yl)-5-methoxy-2-pyrazinecarboxamide], the IC50 in experiment [1] is 3.8 nM; at Cathepsin D, 400000 nM; in experiment [2], 3.1 nM.

Consider `COc1ccc(C(=O)Nc2ccc3c(c2)[C@@]2(CCSC(N)=N2)c2cc(-c4ccnc(F)c4)nc(F)c2O3)nc1` [Example 115, N-((5S)-2′-amino-1-fluoro-3-(2-fluoro-4-pyridinyl)-5′,6′-dihydrospiro[chromeno[2,3-c]pyridine-5,4′-[1,3]thiazin]-7-yl)-5-methoxy-2-pyridinecarboxamide], for which the IC50 in experiment [1] was found to be 2.2 nM; on Cathepsin D, 162000 nM; in experiment [2], 0.4 nM.

As to `NC1=N[C@@]2(CCS1)c1cc(NC(=O)c3ccc(F)cn3)ccc1Oc1c2cc(-c2ccnc(F)c2)nc1F` [Example 118, N-((5S)-2′-amino-1-fluoro-3-(2-fluoro-4-pyridinyl)-5′,6′-dihydrospiro[chromeno[2,3-c]pyridine-5,4′-[1,3]thiazin]-7-yl)-5-fluoro-2-pyridinecarboxamide], the half-inhibitory concentration (IC50) was 4.2 nM in experiment [1], 400000 nM on Cathepsin D and 1.5 nM in experiment [2].
